Results from US20240199555A1, “APPLICATIONS OF BIASED LIGANDS OF THE SEROTONIN 5-HT7 RECEPTOR FOR THE TREATMENT OF PAIN, MULTIPLE SCLEROSIS AND THE CONTROL OF THERMOREGULATION” (Centre National de la Recherche Scientifique, priority 2021, published 2024).

Experiments:
mice [1] = assay: Tail immersion test (50° C.); assay type: in vivo; conditions: 5-HT7R KO mice, subcutaneous
Method: (A) Experimental protocol summary used. (B) Mice were subcutaneously injected with two different doses of the 5-HT7 receptor agonist Serodolin, 1 mg/kg or 5 mg/kg and 10 min later their tail extremity was immersed in water heated to 50 degrees. […] The effect of injections (Serodolin or E55888) was evaluated at TO, 30 min and 60 min corresponding to 10, 40 and 70 min after compound injections. […] Their tail extremity was immersed in water heated to 50 degrees at TO (E) or 30 min later (F) corresponding to 10 and 40 min after agonist injections. […] Statistical analysis was done using Tukey's multiple comparison test.
Tail immersion test. Nociception was assessed with the tail immersion test, 10 min and 40 min after E55888 (5 mg/kg) or Serodolin (5 mg/kg) tail subcutaneous injections, in the water heated to 50° C. Vehicle (20% DMSO, 5% Tween 80 diluted in PBS solution) was used as a control group. These different groups were intraperitoneally injected (+) or not (−) with the 5-HT7R antagonist SB269960 (5 mg/kg) 10 min before the ligand injection. The tail withdrawal latency (s) was measured for each animal.

human 5-HT7a receptor = human 5-HT7a receptor (Homo sapiens (Human), UniProt P34969); assay: Radioligand binding competition, filtration binding assay, 5-HT7a; conditions: affinity on 5-HT7 receptor, table of new compounds
Chain of human 5-HT7a receptor (P34969 other isoform, or with tags, fused parts or gaps): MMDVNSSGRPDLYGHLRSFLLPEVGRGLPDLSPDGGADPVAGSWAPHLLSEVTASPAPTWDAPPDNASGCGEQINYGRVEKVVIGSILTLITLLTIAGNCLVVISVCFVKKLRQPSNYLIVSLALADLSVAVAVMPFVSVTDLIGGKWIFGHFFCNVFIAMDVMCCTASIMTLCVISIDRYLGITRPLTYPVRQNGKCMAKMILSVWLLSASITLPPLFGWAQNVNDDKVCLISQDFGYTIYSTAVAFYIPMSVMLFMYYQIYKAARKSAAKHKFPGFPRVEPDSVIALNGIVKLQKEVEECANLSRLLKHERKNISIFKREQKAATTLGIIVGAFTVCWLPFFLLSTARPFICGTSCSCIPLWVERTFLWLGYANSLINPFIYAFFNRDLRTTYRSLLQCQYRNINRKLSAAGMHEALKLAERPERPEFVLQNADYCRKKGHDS
Method: FIG. 14: Testing of 8 molecules for radioligand binding competition activity on recombinant human 5-HT1A, 5-HT2A, 5-HT2Cedited, 5-HT6, 5-HT7 and D2(long) receptors using filtration binding assays.
Radioligand Binding experiments were conducted with Epics Therapeutics membrane preparations. Receptor accession numbers, cellular background and reference compounds are shown in this table.
Reference values thus obtained for the test were compared to historical values obtained from the same receptor and used to validate the experimental session. For replicate determinations, the maximum variability tolerated in the test was of +/−20% around the average of the replicates.
Dose-response data from test compounds were analyzed with XLfit (IDBS) software using nonlinear regression applied to a sigmoidal dose-response model and the following equation: • XL Fit fit Model 203: 4 Parameter Logistic Model • A: Bottom • B: TOP • C: LogEC50 • D: Hill

[2] = Pharmacokinetic study in plasma and brain; assay type: in vivo, C57BL/6 mice; conditions: 5 mg/kg, subcutaneous
Method: FIG. 20: Pharmacokinetic study of E55888 and Serodolin. Concentration-time profile of E55888 (reference agonist) and Serodolin in plasma (A) and brain (B) following subcutaneous injection of a unique dose 5 mg/kg of each compound in C57BL/6 mice. Data represent the mean concentration±SEM of n=4 each time point.
The pharmacokinetic study was undertaken to evaluate and compare the quantity of Serodolin and E55888 in plasma and brain samples from C57BL/6 mice (Janvier, Le Genest France) at several time points. Seven weeks old C57BL/6 mice (n=4 animals per group) received by subcutaneous injection a unique dose (5 mg/kg) of Serodolin or E55888 (U103013S, Achemblock). Control group received vehicle (solution of 20% DMSO and 5% Tween 80 diluted in NaCl). […] Blank vehicle mouse brains homogenates and plasma were used to established standard curves of Serodolin or E55888. […] Study samples, brains homogenates and plasma, were prepared for protein precipitation by adding 85 μL of acetonitrile+5-CT to 20 μL of samples. LC-HRMS analysis for PK studies were performed on a maXis Q-TOF mass spectrometer (Bruker, Bremen, Germany) coupled to an U3000 RSLC UHPLC system (Dionex, Germering, Germany). Separation was obtained using an Acquity UPLC BEH C18 column (2.1×50 mm; 1.7 μm) (Waters, Saint-Quentin-en-Yvelines, France) thermostated at 40° C. with a gradient of water (solvent A) and acetonitrile (solvent B), both acidified with 0.1% formic acid at 500 μL/min. […] The samples were randomized prior analysis; 1.25 μL were injected for plasma and 8 μL for brains. […] Area were integrated from extracted ion chromatograms (EIC) of [M+H]+ ions using QuantAnalysis 4.4 software (Bruker) with a tolerance of ±0.005 u.
The pharmacokinetics profile of both compounds were evaluated. The inventors used liquid chromatography tandem mass spectrometry (UPLC-MS/MS) method to perform PK study and measure Serodolin vs E55888 levels in vivo.

mice [3] = assay: CFA-induced mechanical hypersensitivity, Von Frey filament test; assay type: in vivo; conditions: 5 mg/kg, s.c., 30 minutes
Method: Mechanical hypersensitivity was evaluated after CFA intraplantar injection by using the Von Frey test. […] Mechanical hypersensitivity was performed 24 hrs later (pre-treatment) CFA intraplantar injection into the left hind paw (ipsilateral paw). […] The ligand effects (E55888 or Serodolin) were evaluated 30 min and 24 hrs after in the ipsilateral paw. Data are means±SEM of values obtained in 2 independent experiments (n=8 to 10 per group). ****p<0.0001 ***p<0.001 **p<0.01 *p<0.05. Statistical analysis was done using Kruskal Wallis test.
Von Frey filament test. Before inducing peripheral inflammation, each animal was tested on the left hind paw with Von Frey Filament to determine its basal sensibility level. Then, peripheral inflammation was induced by intraplantar injection of Complete Freund's Adjuvant (CFA-10 μL) (F5881, Sigma) in the left hind paw (ipsilateral paw) and mechanical allodynia was measure (pre-treatment). Mice were divided into two groups, one with E55888 (5 mg/kg) and the other with Serodolin (5 mg/kg) subcutaneous injections in the ipsilateral paw. Both in absence (−) or in presence (+) of the 5-HT7R antagonist SB269960 (5 mg/kg), intraperitoneally, 20 min before the agonist injections (8-10 mice per group).
The inventors wanted to evaluate the effect of Serodolin on mechanical hypersensitivity in comparison with E-55888 after CFA injection.

mouse = assay: Effect on body temperature; assay type: in vivo
Source text: FIG. 13: Evaluation of the effect of Serodolin on body temperature.
FIG. 17: Evaluation of the effect of MOA51 on body temperature. Results expressed in ° C.
The time course of the effect of Serodolin on the body temperature has been evaluated in the mouse following intravenous administration.

HEK-293 mock cells = assay: Control in mock-transfected HEK-293 cells (cAMP, ERK phosphorylation); assay type: cell-based, human
Method: ERK phosphorylation was monitored by western blotting after treatment of cells with 10 μM of ligands at different times ranging from 2 to 60 minutes. […] The kinetics of ERK phosphorylation elicited by 5-CT, Serodolin and MOA-51 were very similar: activation was fast and transient, and reached a pick between 2 and 7 minutes after drug exposure. However, ERK phosphorylation-induced by Serodolin and MOA-51 was more protracted compared to 5-CT, the reference agonist.

mice [4] = assay: Acetic acid-induced writhing test; assay type: in vivo
Method: (§1) FIG. 9: Analgesic effect of Serodolin in the acetic acid-induced writhing test. In this test, nociception was induced by an intraperitoneally injection (ip) of 0.1 ml/10 g acid acetic solution (10 ml/kg) in peripheral origin. Serodolin at increasing dosage was administrated by oral (po), intravenous (iv) or subcutaneous (sc) route before acid acetic injection (upper panel). Positive control animals were pretreated morphine (3 mg/kg, sc) 10 minutes before acetic acid. Five minutes after i.p. injection of acetic acid the number of writhing was recorded for 10 minutes. Data mean±SEM of values obtained from a representative experiment (n=10 animals/group). ****p<0.0001 ***p<0.001 **p<0.01 *p<0.05 as compared with the control group (Vh).
as §1, with “16:” for “9:”, “MOA51” for “Serodolin”, “i.p.injection” for “i.p. injection”, “animals/group).” for “animals/group). ****p<0.0001 ***p<0.001”, “**p<0.01” for “**p<0.01 *p<0.05”
Writhing tests: Mice (25-35 g). Groups of mice (n=10) received by oral, subcutaneous or intravenous route Serodolin at different doses (0.1-10 mg/kg) one hour before intraperitoneally injection of 1% acetic acid in a volume of 10 ml/kg. Control group received vehicle (10 ml/kg, solution of 20% DMSO and 5% tween 80). The test was carried out 5 minutes later after acid acetic injection. The characteristic writhing responses have been observed individually and counted for 10 minutes.
Analgesic activity was first evaluated using the acetic acid abdominal constriction test (writhing test), a chemical model of visceral pain. We evaluated the dose-response effect of Serodolin following single oral, intravenous and subcutaneous administration of the compound one hour before injection of acetic acid.
Analgesic activity was evaluated using the acetic acid abdominal constriction test (writhing test), a chemical model of visceral pain. We evaluated the dose-response effect of MOA51 following single oral, intravenous and subcutaneous administration of the compound one hour before injection of acetic acid. MOA51 administered by the oral route induced statistically significant dose-dependent decreases in the number of writhings at and above the dose of 1 mg/kg. By the intravenous route, MOA51 induced dose-dependent decreases in the number of writhings at and above the dose of 0.1 mg/kg.

Sprague-Dawley male rats = assay: Formalin induced inflammatory pain model; assay type: in vivo; conditions: single s.c., Serodolin 10 mg/kg, MOA51 1 mg/kg, morphine
Method: FIG. 18: Effect of a single administration of Serodolin (AIC01) or MOA51 in the formalin test in rats. Effect of a single subcutaneous administration of Serodolin (AIC01) or MOA51 in the formalin test in rats. In this test, Sprague-Dawley male rats received unilateral injection of a 2.5% formalin solution (50 μl) into the plantar aspect of the hindpaw on testing day (i.e. D0). Control group received Vehicle (20% DMSO/5% Tween 80/NaCl). Serodolin was subcutaneously (sc) administrated at 10 mg/kg and MOA51 at 1 mg/kg. Positive control animals were treated with morphine (3 mg/kg, sc). Paw licking time was measured. Results are expressed as mean±s.e.m. Percentage are expressed as decreased as compared to the vehicle-treated group and represented as figure (B). ***: p<0.001 as compared to the vehicle-treated group, Bonferroni's test after significant Two-way Repeated Measures ANOVA. NS: Non-significant.
Sprague-Dawley male rats (n=10 rats per group) received unilateral injection of a 2.5% formalin solution (50 μl) into the plantar aspect of the hindpaw on testing day (i.e. D0). Experience was separated into 4 groups of animals. Formalin animals+vehicle-treated group; […]—Formalin animals+Sponsor's Serodolin (10 mg/kg), s.c.—Formalin animals+Sponsor's MOA51 (1 mg/kg), s.c.—Formalin animals+internal validator-treated group (Morphine at 4 mg/Kg, s.c.). Single subcutaneous administration of the Vehicle and Sponsor's Compound 30 min (or other timing depending on Sponsor's design) before formalin injection on testing day (i.e. D0)/Subcutaneous administration of Morphine 30 min before formalin injection on testing day (i.e. D0). Hindpaw licking time recorded in consecutive 5 minutes periods from 0 to 5 minutes (early phase) and 17 to 27 minutes (late phase) after formalin injection.
We evaluated the effect of Serodolin as well as MOA51 in rats in the formalin test, an acute and tonic pain model based on the use of a chemical stimulus. Subcutaneous injection of formalin into the right hindpaw produces a biphasic painful response of increasing and decreasing intensity for about 30 minutes after the injection. […] Although not significant, Serodolin, MOA51 and morphine have an inhibitory effect (−40%, −35% and −57% respectively) during the early phase.

C57BL/6 mice = assay: Spared Nerve Injury (SNI) neuropathic pain model, Von Frey; conditions: s.c.
Method: Pregabalin, vehicle or compounds solutions are subcutaneously administrated for 8 consecutive days. • (A) Mechanical response threshold after the first administration (D+10). […] Positive control animals were treated with Pregabalin (5 mg/kg, sc). Statistical differences are indicated compared to vehicle group (Two-way RM ANOVA followed by Bonferroni post-hoc test: ***p<0.001, ** p<0.01, * p<0.05). […] Positive control animals were treated with Pregabalin (5 mg/kg, sc). Statistical differences are indicated compared to vehicle group (Two-way RM ANOVA followed by Bonferroni post-hoc test: ***p<0.001, ** p<0.01, * p<0.05). […] (Two-way RM ANOVA followed by Bonferroni post-hoc test: ***p<0.001, ** p<0.01, * p<0.05)
MOA51 and Serodolin (AIC01) compounds were diluted in NDT solution (NaCl 0.9%—DMSO 20%—Tween80 5%). […] AIC01 was resuspended at 0.5 mg/mL and administrated at a ratio of 100 μl per 10 g (dose of 5 mg/kg).
Experiment starts with 8 weeks old male C57B16J mice (from Charles River). Study was performed on 40 mice (2 mice were excluded during the study due to health guidelines) divided in 4 randomized groups. • Group A: s.c. injection at 5 mg/kg of pregabalin. • Group B: s.c. injection at 0.5 mg/kg of MOA51. • Group C: s.c. injection at 5 mg/kg of Serodolin (AIC01). • Group D: s.c. injection of NDT solution (referred as Vehicle hereafter).
Compounds solutions, pregabalin and vehicle were subcutaneously administrated (100 μl/10 g) for 9 consecutive days, starting 10 days after surgery. Ligature and transection of the common peroneal and tibial distal branches of the sciatic nerve was made leaving the sural branch intact. 7 days post-surgery, a decrease of threshold response to Von Frey filaments of ipsilateral hind-paw was observed corresponding to neuropathic pain apparition (mechanical allodynia). Mechanical threshold response of mice were measured with calibrated Von Frey filaments using the up/down method. Experimenter was blind to mice treatment. Measures are performed as follow: one baseline measure before surgery, one measure at D+10, D+12, D+14, D+16 and D+18 before drug's administration, and 1 h, 2 h post-drug administration. A supplementary measure 4 h post-drug administration was performed at D+10 and D+18.
Two-way RM ANOVA (followed by Bonferroni post-hoc test) was used to analysed time course response at D+10 and D+18. Area under the curve was determined with the 1 h and 2 h post-drug administration measures to investigated tolerance of repeated administration of compounds

Cc1nn(C)c(C)c1-c1cccc(CCN(C)C)c1 [E55888, reference compound]
anti-nociceptive effect in 5-HT7R KO mice (mice [1]): did not exert any anti-nociceptive effect
IC50 (human 5-HT7a receptor): 2.68 nM
Ki (human 5-HT7a receptor): 1.88 nM
passage of the brain blood barrier [2]: ability to pass the brain blood barrier
time of maximum of detection ([2]; both in plasma and brain): 15 to 30 min
maximum of detection in brain ([2]; brain): 1.4 ± 0.2 µg/mL
maximum of detection in plasma ([2]; plasma): 6.1 ± 0.5 µg/mL
time after which eliminated / undetectable ([2]; plasma and brain): 120 min
CFA-induced mechanical hypersensitivity, 30 minutes after administration (mice [3]): reversed the CFA-induced mechanical hypersensitivity

O=C(c1ccc(F)cc1)C1CCN(Cn2c(=O)[nH]c3ccccc32)CC1 [MOA51]
decrease in body temperature, Emax (mouse; 0.1 mg/kg, at 30 min, not statistically significant): −2.3 °C
decrease in body temperature, Emax (mouse; 0.3 mg/kg, at 30 min): −5.4 °C
decrease in body temperature, Emax (mouse; 1 mg/kg, at 180 min): −7.2 °C
ERK phosphorylation in HEK-293 mock cells (HEK-293 mock cells): neither Serodolin, nor MOA-51 were able to induce ERK phosphorylation
writhings at the top dose, intravenous route (mice [4]; 10 mg/kg, intravenous): no further acetic acid-induced writhings were observed
dose giving decrease in number of writhings, intravenous route (mice [4]; intravenous, one hour before acetic acid): ≥ 0.1 mg/kg
dose giving significant decrease in number of writhings, oral route (mice [4]; oral, one hour before acetic acid): ≥ 1 mg/kg
dose giving significant decrease in number of writhings, subcutaneous route (mice [4]; s.c., one hour before acetic acid): ≥ 1 mg/kg
writhings at the top dose, subcutaneous route (mice [4]; top dose, subcutaneous): absence of acetic acid-induced writhings
inhibitory effect on paw licking, early phase (Sprague-Dawley male rats; 0 to 5 minutes, not significant): −35%
inhibition of licking, late phase (Sprague-Dawley male rats; 17 to 27 minutes): −78%
tolerance after repetitive administration (AUC) (C57BL/6 mice; 9 consecutive days): didn't present any tolerance effect after repetitive administration
mechanical response threshold vs vehicle (C57BL/6 mice; first (D+10) and last (D+18) administration, 1 h and 2 h): significant increase in the mechanical threshold response
